Measured values taken from patent US20100291196A1, “METHOD OF TREATMENT OF AUTISM SPECTRUM DISORDER WITH LIPOSOMAL REDUCED GLUTATHIONE” (priority 2005, published 2010).

Key:
[1] = tested on: methionine cycle function; conditions: for improvement with known intermediates and support supplements of the methionine cycle: Case 3, supplements taken together in the month before liposomal glutathione; for blood pressure after initiating the therapies / how the patient felt a few days after initiating the therapies: in vivo
Text: The elevation of histamine is also an indicator of decreased methylation function as it is inactivated by histamine-methyl transferase.
During the month prior to evaluation the MM initiated therapy with SAMe, folate, betaine (trimethyl glycine), N-acetylcysteine and B12 by injection and oral glutathione (neat, not in the form of the invention).

children with autism = conditions: cited from earlier work
[2] = 3 grams by oral ingestion; cited from earlier work
children = assay: Practical experience and clinical observation of children using methylcobalamin by injection; assay type: in vivo, human
[3] = 800 μg folinic acid and 1000 mg betaine twice daily, 3 months
[4] = after a month of injection therapy
[5] = second intervention, injectable methylcobalamin added to folinic acid and betaine

Row | Compound | how the patient felt a few days after initiating the therapies [1] | improvement with known intermediates and support supplements of the methionine cycle [1] | blood pressure after initiating the therapies [1] | also measured
1 | CC(=O)N[C@@H](CS)C(=O)O [N-acetylcysteine] | felt worse | did not improve | 170/120 | 
2 | Nc1nc(=O)c2c([nH]1)NCC(CNc1ccc(C(=O)N[C@@H](CCC(=O)O)C(=O)O)cc1)N2C=O (mixture of isomers) [folinic acid] |  |  |  | methionine cycle metabolites versus concentrations in controls (children with autism; [3]): effective in normalizing; total GSH (tGSH) or GSSG concentrations or tGSH:GSSG ratio (children with autism; [3]): improved but did not normalize
3 | Nc1nc2ncc(CNc3ccc(C(=O)N[C@@H](CCC(=O)O)C(=O)O)cc3)nc2c(=O)[nH]1 [folic acid] | felt worse | did not improve | 170/120 | 
4 | C[N+](C)(C)CC(=O)O [betaine, trimethyl glycine] | felt worse |  | 170/120 | 
5 | C[S+](CC[C@H](N)C(=O)[O-])C[C@H]1O[C@@H](n2cnc3c(N)ncnc32)[C@H](O)[C@@H]1O (stereo partly shown) [SAMe, S-Adenosylmethionine] | felt worse | did not improve | 170/120 | 
6 | C/C1=C2/[N-][C@H]([C@H](CC(N)=O)[C@@]2(C)CCC(=O)NC[C@@H](C)OP(=O)([O-])O[C@H]2[C@@H](O)[C@@H](n3cnc4cc(C)c(C)cc43)O[C@@H]2CO)[C@]2(C)N=C(/C(C)=C3N=C(/C=C4N=C1[C@@H](CCC(N)=O)C\4(C)C)[C@@H](CCC(N)=O)[C@]\3(C)CC(N)=O)[C@@H](CCC(N)=O)[C@]2(C)CC(N)=O.[CH3-].[Co+3] [methylcobalamin] |  |  |  | GSSG (children with autism; [4]): decreased; level of total GSH (tGSH) (children with autism; [4]): increased; tGSH:GSSG ratio (glutathione redox profile) (children with autism; [4]): normalization; speech and cognition (children with autism; injection therapy, children with autism): improvement in speech and cognition; concentration of adenosine and GSSG (children with autism; [5]): further decrease; concentrations of methionine, cysteine, tGSH and SAM:SAH and tGSH:GSSG ratios (children with autism; [5]): further increase; irritability (children; many children, methylcobalamin by injection): substantially increased irritability; SAH (children; methylcobalamin by itself, preliminary data): can cause an increase

Further lines, with some results ahead:

Row | how the patient felt a few days after initiating the therapies [1] | Compound | improvement with known intermediates and support supplements of the methionine cycle [1] | blood pressure after initiating the therapies [1] | also measured
7 | felt worse | cyanocobalamin [B12 (cyanocobalamin)] | did not improve | 170/120 | 
8 | felt worse | N[C@@H](CCC(=O)N[C@@H](CS)C(=O)NCC(=O)O)C(=O)O [glutathione, gamma-glutamyl-cysteinyl-glycine] | did not improve | 170/120 | plasma glutathione levels [2]: does not elevate
